Series [1] has as its target T1, Solute carrier organic anion transporter family member 1B1 (Homo sapiens, UniProt Q9Y6L6).
T1 sequence (Q9Y6L6 whole entry): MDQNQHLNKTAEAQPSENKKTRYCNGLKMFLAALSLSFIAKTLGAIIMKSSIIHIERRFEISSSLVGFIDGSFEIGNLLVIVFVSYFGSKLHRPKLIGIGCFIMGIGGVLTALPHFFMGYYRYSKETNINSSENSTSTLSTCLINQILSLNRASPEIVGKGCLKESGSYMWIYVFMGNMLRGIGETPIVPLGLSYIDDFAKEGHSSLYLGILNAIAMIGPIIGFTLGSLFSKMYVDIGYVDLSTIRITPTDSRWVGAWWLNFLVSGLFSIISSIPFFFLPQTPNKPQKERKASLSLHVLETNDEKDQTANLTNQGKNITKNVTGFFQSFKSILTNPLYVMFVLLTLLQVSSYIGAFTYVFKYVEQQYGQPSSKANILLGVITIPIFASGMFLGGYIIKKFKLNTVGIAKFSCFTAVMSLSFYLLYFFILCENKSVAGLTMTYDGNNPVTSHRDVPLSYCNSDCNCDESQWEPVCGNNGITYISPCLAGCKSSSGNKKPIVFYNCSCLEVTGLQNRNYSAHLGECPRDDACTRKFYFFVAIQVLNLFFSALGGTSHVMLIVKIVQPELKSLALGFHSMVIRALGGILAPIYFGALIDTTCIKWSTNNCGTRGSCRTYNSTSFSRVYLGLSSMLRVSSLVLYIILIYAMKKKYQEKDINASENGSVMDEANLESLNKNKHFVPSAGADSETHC
Particulars: chinese hamster, cho, 10 µM.

For series [2], the target named is T2, Solute carrier organic anion transporter family member 1B3 (Homo sapiens, UniProt Q9NPD5).
T2 sequence (Q9NPD5 whole entry): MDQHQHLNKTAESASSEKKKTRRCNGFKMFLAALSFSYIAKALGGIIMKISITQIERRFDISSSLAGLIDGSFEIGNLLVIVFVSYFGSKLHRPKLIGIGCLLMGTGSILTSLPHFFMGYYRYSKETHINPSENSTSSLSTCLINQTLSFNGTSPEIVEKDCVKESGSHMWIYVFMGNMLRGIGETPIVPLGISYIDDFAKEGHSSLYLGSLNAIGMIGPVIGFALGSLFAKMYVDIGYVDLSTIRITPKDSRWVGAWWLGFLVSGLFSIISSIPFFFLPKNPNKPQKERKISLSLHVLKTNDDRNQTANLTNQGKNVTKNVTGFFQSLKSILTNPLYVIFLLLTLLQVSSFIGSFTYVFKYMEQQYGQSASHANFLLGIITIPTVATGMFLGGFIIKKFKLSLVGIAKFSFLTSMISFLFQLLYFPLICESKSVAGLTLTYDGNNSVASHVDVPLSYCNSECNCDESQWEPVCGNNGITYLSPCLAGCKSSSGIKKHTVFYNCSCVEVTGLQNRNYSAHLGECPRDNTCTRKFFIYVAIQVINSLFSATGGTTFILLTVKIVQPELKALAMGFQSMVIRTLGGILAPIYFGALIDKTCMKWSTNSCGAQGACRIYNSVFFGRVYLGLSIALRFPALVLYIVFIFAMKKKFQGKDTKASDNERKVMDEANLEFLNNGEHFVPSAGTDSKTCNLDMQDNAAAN
Particulars: chinese hamster, cho, 10 µM.

For `CC(C)CCC[C@@H](C)[C@H]1CC[C@H]2[C@@H]3CC[C@H]4CC(=O)CC[C@]4(C)[C@H]3CC[C@]12C` [CHOLESTAN-3-ONE], the residual activity (as a rule, the signal under treatment as a percentage of the control signal) in series [1] came out at 74.43%; in series [2], 73.06%.
On to `CC(C)CCC[C@@H](C)[C@H]1CC[C@H]2[C@@H]3C[C@@H](O)[C@@]4(O)C[C@@H](O)CC[C@]4(C)[C@H]3CC[C@]12C` [CHOLESTAN-3beta,5alpha,6beta-TRIOL], for which the residual activity in series [1] is 90.42%; in series [2], 93.54%.
On the same counts, the results for `CC(C)CCC[C@@H](C)[C@H]1CC[C@H]2[C@@H]3CC=C4C[C@@H](O)CC[C@]4(C)[C@H]3CC[C@]12C` [CHOLESTEROL] are 95.51% and 100%.
On the same counts, the results for `C[C@H](CCC(=O)O)[C@H]1CC[C@H]2[C@@H]3[C@H](O)C[C@@H]4C[C@H](O)CC[C@]4(C)[C@H]3C[C@H](O)[C@]12C` [CHOLIC ACID] are 99.52% and 75.03%.
As for `C[N+](C)(C)CCO.[Cl-]` [CHOLINE CHLORIDE], the residual activity in series [1] is listed as 93.68%; in series [2] it was 113.2%.
On the same counts, the results for `O=C(O)c1cc(=O)c2ccccc2o1` [CHROMOCARB] are 133.6% and 93%.
Consider `CCOC(=O)C1C(C=C(C)C)C1(C)C` (stereo unspecified) [CHRYSANTHEMIC ACID, ETHYL ESTER], for which the results for the residual activity in series [1] and in series [2] were 83.17% and 89.36%, respectively.
For `CC(C)=CC1C(C(=O)O)C1(C)C` (stereo unspecified) [CHRYSANTHEMIC ACID], the residual activity was 83.79% in series [1] and 97.37% in series [2].
Consider `CC(C)=CC1C(CO)C1(C)C` (stereo unspecified) [CHRYSANTHEMYL ALCOHOL], for which the residual activity is 106.8% in series [1] and 105.2% in series [2].
On the same counts, the results for `COc1cc(OC)c2c(=O)cc(-c3ccccc3)oc2c1` [CHRYSIN DIMETHYL ETHER] are 112.1% and 103.1%.
As to `O=c1cc(-c2ccccc2)oc2cc(O)cc(O)c12` [CHRYSIN], the figures for the residual activity in series [1] and in series [2] were 115.4% and 129.1%, respectively.
`Cc1cc(O)c2c(c1)C(=O)c1cccc(O)c1C2=O` [CHRYSOPHANOL]: the residual activity in series [1] is listed as 128.6%; in series [2], 93.35%.
For `Oc1cc(O)c2c(c1)O[C@H](c1ccc(O)c(O)c1)[C@@H](O)C2` [CIANIDANOL] the same measures were 72.87% and 92.34%.
As for `Cc1cc(C2CCCCC2)n(O)c(=O)c1.NCCO` [CICLOPIROX OLAMINE], the results for the residual activity in series [1] and in series [2] were 129.1% and 106%, respectively.
Consider `O=C1CCc2cc(OCCCCc3nnnn3C3CCCCC3)ccc2N1` [CILOSTAZOL], for which the residual activity turned out to be 207.2% in series [1] and 98.73% in series [2].
On the same counts, the results for `CN/C(=N/CCSCc1nc[nH]c1C)NC#N` [CIMETIDINE] are 120.2% and 96.42%.
For `C=C[C@H]1CN2CC[C@H]1C[C@H]2[C@H](O)c1ccnc2ccccc12` [CINCHONIDINE] the same measures were 86.58% and 111.1%.
On the same counts, the results for `C=C[C@H]1C[N@@]2CC[C@H]1C[C@@H]2[C@@H](O)c1ccnc2ccccc12` [CINCHONINE] are 122.3% and 105.3%.
For the molecule `C(=C\c1ccccc1)/CN1CCN(C(c2ccccc2)c2ccccc2)CC1` [CINNARIZINE], the results for the residual activity in series [1] and in series [2] were 185.1% and 102.7%, respectively.
On the same counts, the results for `O=C(O)c1cn(C2CC2)c2cc(N3CCNCC3)c(F)cc2c1=O` [CIPROFLOXACIN] are 105.3% and 112.4%.
For `C[N+](C)(C)CCOP(=O)(O)OP(=O)([O-])OC[C@H]1O[C@@H](n2ccc(N)nc2=O)[C@H](O)[C@@H]1O` [CITICOLINE] the same measures were 81.06% and 69.94%.
On the same counts, the results for `CC(=O)NC1CCSC1=O` (stereo unspecified) [CITIOLONE] are 110.6% and 92.74%.
For the molecule `CC1=C2C(=CO[C@H](C)[C@H]2C)C(O)=C(C(=O)O)C1=O` [CITRININ], the residual activity in series [1] amounted to 34.39%; in series [2] it was 67.29%.
For `COc1cc(OC)c2ccc(=O)oc2c1` [CITROPTEN] the same measures were 81.95% and 105.5%.
As to `COc1cc(N)c(Cl)cc1C(=O)NC1CCN(Cc2ccccc2)CC1.O=C(O)/C=C\C(=O)O` [CLEBOPRIDE MALEATE], the residual activity turned out to be 84.15% in series [1] and 124.4% in series [2].
Consider `CC(C)(C)NCC(O)c1cc(Cl)c(N)c(Cl)c1.Cl` (stereo unspecified) [CLENBUTEROL HYDROCHLORIDE], for which the residual activity in series [1] was determined as 78.76%; in series [2] it was 99.43%.
For the molecule `C[N+]12CCC(CC1)C(OC(=O)C(O)(c1ccccc1)c1ccccc1)C2.[Br-]` (stereo unspecified) [CLIDINIUM BROMIDE], the residual activity in series [1] worked out at 125.2%; in series [2] it was 92.46%.
As to `CCC[C@@H]1C[C@@H](C(=O)N[C@@H]([C@H]2O[C@H](SC)[C@H](O)[C@@H](O)[C@H]2O)[C@H](C)Cl)N(C)C1.Cl` [CLINDAMYCIN HYDROCHLORIDE], the residual activity is recorded as 69.97% in series [1] and 115.2% in series [2].
Regarding `CCC(=O)O[C@]1(C(=O)CCl)[C@@H](C)C[C@H]2[C@@H]3CCC4=CC(=O)C=C[C@]4(C)[C@@]3(F)[C@@H](O)C[C@@]21C` [CLOBETASOL PROPIONATE], the residual activity in series [1] is reported as 20.25%; in series [2], 21.34%.
For `CCOC(=O)C(C)(C)Oc1ccc(Cl)cc1` [CLOFIBRATE], the residual activity in series [1] is reported as 114.7%; in series [2], 127.7%.
On the same counts, the results for `CC(C)(Oc1ccc(Cl)cc1)C(=O)O` [CLOFIBRIC ACID] are 111.2% and 99.14%.
For `CC(C)(C)CC(C)(C)c1ccc(O)c(Cc2ccc(Cl)cc2Cl)c1` [CLOFOCTOL] the same measures were 77.9% and 76.53%.
For `CCN(CC)CCOc1ccc(C(=C(Cl)c2ccccc2)c2ccccc2)cc1` [CLOMIPHENE] the same measures were 99.41% and 126.3%.
With `CN(C)CCCN1c2ccccc2CCc2ccc(Cl)cc21.Cl` [CLOMIPRAMINE HYDROCHLORIDE], the residual activity in series [1] is 43.58%; in series [2] it was 78.81%.
As to `Cl.Clc1cccc(Cl)c1NC1=NCCN1` [CLONIDINE HYDROCHLORIDE], the residual activity in series [1] worked out at 73%; in series [2], 99.63%.
As to `C[C@@H]1CCC[C@H](C)N1NC(=O)c1ccc(Cl)c(S(N)(=O)=O)c1` [CLOPAMIDE], the residual activity came out at 113.6% in series [1] and 107.3% in series [2].
For `Cl.Clc1ccc(C(OCCN2CCCCC2)c2ccccc2)cc1` (stereo unspecified) [CLOPERASTINE HYDROCLORIDE] the same measures were 53.44% and 89.01%.
For `COC(=O)[C@H](c1ccccc1Cl)N1CCc2sccc2C1.O=S(=O)(O)O` [CLOPIDOGREL BISULFATE], the residual activity in series [1] amounted to 145.3%; in series [2], 96.14%.

The record behind these values is ChEMBL document CHEMBL3039007, “Structure-based identification of OATP1B1/3 inhibitors” (Mol Pharmacol, 2013).
